{"source": "patent US5470833A", "about": "“Endothelin antagonistic peptide derivatives” (Banyu Pharmaceutical Co., Ltd., priority 1990, dated 1995)", "key": {"[1]": {"target": "T1, endothelin receptor (membrane of smooth muscle tissue of porcine aorta) (Sus scrofa, UniProt Q29010)", "T1 construct": "from tissue; host or cells: porcine aorta smooth muscle, membrane fraction", "T1 sequence (Q29010 21-427)": "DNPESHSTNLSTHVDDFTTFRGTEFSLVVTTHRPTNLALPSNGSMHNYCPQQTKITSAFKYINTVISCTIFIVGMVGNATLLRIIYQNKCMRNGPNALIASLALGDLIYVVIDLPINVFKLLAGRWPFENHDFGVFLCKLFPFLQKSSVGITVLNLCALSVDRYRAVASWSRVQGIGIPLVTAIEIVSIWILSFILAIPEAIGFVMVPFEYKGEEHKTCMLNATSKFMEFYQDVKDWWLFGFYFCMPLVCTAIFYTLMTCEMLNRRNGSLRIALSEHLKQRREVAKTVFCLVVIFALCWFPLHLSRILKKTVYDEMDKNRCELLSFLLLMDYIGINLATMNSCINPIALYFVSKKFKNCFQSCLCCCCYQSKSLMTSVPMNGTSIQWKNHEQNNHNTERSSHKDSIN", "assay": "Endothelin binding inhibition test (125I-endothelin-1, porcine aorta smooth muscle membrane)", "settings": "read-out: 125I-endothelin-1 binding inhibition; for inhibition at 10 µM: 10 μM test compound (marked *)", "procedure": "The smooth muscle tissue of porcine aorta was homogenized in a buffer solution of 10 mM MOPS, pH 7.4, at 4° C. by a polytron. To the homogenate, sucrose was added to a concentration of 20%, and the mixture was centrifuged at 1,000×g for 15 minutes, and the supernatant was further centrifuged at 10,000×g for 15 minutes. The supernatant thereof was further centrifuged at 90,000×g for 40 minutes. The membrane precipitate thereby obtained was suspended in a buffer solution of 5 mM HEPES/Tris, pH 7.4, at a concentration of 25 mg/ml.\nThen, 16 μl of this membrane suspension was added to 340 μl of 50 mM Tris/HCl buffer, pH 7.4, containing 10 μM calcium chloride, 10 μM magnesium chloride, 0.1 mM PMSF, 1 μM pepstatin A, 2 μM leupeptin, 1 mM 1,10-phenanthroline and 0.1% bovine serum albumin. To this suspension, 4 μl of (A) endothelin-1 (for nonspecific binding; 0.2 μM as the final concentration), (B) buffer solution A (for total control binding), or (C) a test compound (1.1 μM or 10 μM as the final concentration),was added. Further, to each suspension, 40 μl of ^125 I-endothelin-1 (12000-18000 cpm) was added. These mixtures were incubated at 25° C. for 4 hours, then subjected to filtration on a glass filter GF/C and then washed with 5 mM HEPES/Tris, pH 7.4, containing 0.3% bovine serum albumin. Then, the radioactivity trapped by the glass filter was measured, and the ^125 I-endothelin-1 binding inhibition D (%) at 1.1 μM or 10 μM of the test compound was determined by the following equation. [formula] Each test was performed in triplicate.\nThe test compounds are indicated by Compound Nos."}, "[2]": {"system": "isolated porcine coronary artery", "assay": "Activities against endothelin-induced contraction of isolated porcine coronary arteries", "parameters": "species or system pig", "settings": "for shift of the concentration-response curve of endothelin-1: added 20 minutes prior to endothelin-1", "procedure": "The coronary artery of pig was extracted, and a spiral preparation having a width of 1 mm and a length of 10 mm was prepared therefrom.\nEndothelin-1 was added into the organ bath in a cumulatively increasing manner, whereby the influence of a compound of the present invention to the concentration-response curve for endothelin-1 was examined. The compound was added into the organ bath 20 minutes prior to the addition of endothelin-1."}, "[3]": {"system": "isolated guinea pig trachea", "assay": "Activities against endothelin-induced contraction of isolated guinea pig trachea", "settings": "6 μM compound; for shift of the concentration-response curve for endothelin-1: added 20 minutes prior to endothelin-1", "procedure": "The trachea of a guinea pig was extracted, and the trachea was cut into rings to afford a preparation.\nEndothelin-1 was added into the organ bath in a cumulatively increasing manner, and the influence of a compound of the present invention to the concentration-response curve for endothelin was examined. The compound was added into the organ bath 20 minutes prior to the addition of endothelin-1."}, "isolated rat heart": {"system": "isolated rat heart", "assay": "Effects on the increased perfusion pressure induced by endothelin in isolated rat heart (Langendorff)", "procedure": "The heart of a male Sprague Dohrie (SD) rat was extracted, and the perfusion pressure was measured and recorded according to the Langendorff's method.\nEndothelin-1 was cumulatively added to the perfusate, whereby the influence of a compound of the present invention to the concentration-response curve for endothelin-1 was examined. The compound which was dissolved in the perfusate had been infused from 20 minutes prior to the addition of endothelin-1 till just after finishing measurement of the concentration-response curve for endothelin-1."}}, "note": "Like-named read-outs stand apart in the source and are kept apart here. Numbered stars: 1 amine (or outer) side, 2 acyl side, 3 side chain; on linkers, the order of the positions; unused ones are H or OH. Square brackets hold non-standard residues; d marks the D form. Peptide text beside a SMILES is read from it. * marks the point of attachment. dPhg = N[C@@H](C(=O)O)c1ccccc1; NMeL = CN[C@@H](CC(C)C)C(=O)O; Boc = CC(C)(C)OC(=O)*; CO = O=C([*:1])[*:2]; NHPh = c1ccc(N*)cc1; OBn = c1ccc(CO*)cc1; Ahx = NCCCCCC(=O)O; βAla = NCCC(=O)O", "data": [{"smiles": "CC(C)C[C@H](NC(=O)N1CCCCCC1)C(=O)N[C@H](Cc1c[nH]c2ccccc12)C(=O)N[C@H](Cc1c[nH]c2ccccc12)C(=O)O", "note": "[Compound 50]", "values": [{"measurement": "inhibition at 1.1 µM", "setting": "[1]", "result": 87, "unit": "%"}, {"measurement": "maximum response to endothelin-1", "setting": "[2]; 2 μM compound", "result": "did not affect the maximum response"}, {"measurement": "shift of the concentration-response curve of endothelin-1", "setting": "[2]; 2 μM compound", "result": "remarkably shifted the concentration-response curves of endothelin-1 to the right"}, {"measurement": "maximum response to endothelin-1", "setting": "[3]", "result": "did not affect the maximum response"}, {"measurement": "shift of the concentration-response curve for endothelin-1", "setting": "[3]", "result": "remarkably shifted the concentration-response curves for endothelin-1 to the right"}, {"measurement": "maximum response to endothelin-1 (perfusion pressure)", "setting": "isolated rat heart; 1 μM compound", "result": "did not affect the maximum response"}, {"measurement": "shift of the concentration-response curve for endothelin-1 (perfusion pressure)", "setting": "isolated rat heart; 1 μM compound in perfusate from 20 minutes prior to endothelin-1", "result": "moved the concentration-response curve for endothelin-1to the right"}]}, {"smiles": "CC(C)C[C@H](NC(=O)OC(C)(C)C)C(=O)N[C@H](Cc1c[nH]c2ccccc12)C(=O)N[C@@H](C(=O)O)c1ccccc1", "note": "[Compound 40] (Boc-Leu-[dW]-[dPhg]-OH)", "values": [{"measurement": "inhibition at 1.1 µM", "setting": "[1]; 1.1 μM test compound (no mark)", "result": 36, "unit": "%"}]}, {"smiles": "CC(C)C[C@H](NC(=O)N(C)C)C(=O)N[C@H](Cc1c[nH]c2ccccc12)C(=O)NCCC(=O)O", "note": "[Compound 73] ({NMe2-CO}-Leu-[dW]-[βAla]-OH)", "values": [{"measurement": "inhibition at 10 µM", "setting": "[1]", "result": 61, "unit": "%"}]}, {"smiles": "CC(C)C[C@H](NC(=O)N1CCCCCC1)C(=O)N[C@H](Cc1cn(C=O)c2ccccc12)C(=O)NCCS(=O)(=O)O", "note": "[Compound 161]", "values": [{"measurement": "inhibition at 1.1 µM", "setting": "[1]; 1.1 μM test compound (no mark)", "result": 84, "unit": "%"}]}, {"smiles": "CC(C)C[C@H](NC(=O)OC(C)(C)C)C(=O)N[C@H](Cc1c[nH]c2ccccc12)C(=O)N[C@H](Cc1ccccc1)CS(=O)(=O)O", "note": "[Compound 26]", "values": [{"measurement": "inhibition at 10 µM", "setting": "[1]", "result": 36, "unit": "%"}]}, {"smiles": "CC(C)C[C@@H](C(=O)N[C@H](Cc1c[nH]c2ccccc12)C(=O)NCCC(=O)O)N(C)C(=O)OC(C)(C)C", "note": "[Compound 30] (Boc-[NMeL]-[dW]-[βAla]-OH)", "values": [{"measurement": "inhibition at 1.1 µM", "setting": "[1]; 1.1 μM test compound (no mark)", "result": 44, "unit": "%"}]}, {"smiles": "CC(C)C[C@H](NC(=O)OC(C)(C)C)C(=O)N[C@H](Cc1c[nH]c2ccccc12)C(=O)N[C@@H](CC(=O)O)C(=O)Nc1ccccc1", "note": "[Compound 45] (Boc-Leu-[dW]-Asp-NHPh)", "values": [{"measurement": "inhibition at 10 µM", "setting": "[1]", "result": 39, "unit": "%"}]}, {"smiles": "CC(C)C[C@H](NC(=O)OC(C)(C)C)C(=O)N[C@H](Cc1c[nH]c2ccccc12)C(=O)N[C@H](CC(=O)O)C(=O)Nc1ccccc1", "note": "[Compound 44] (Boc-Leu-[dW]-[dD]-NHPh)", "values": [{"measurement": "inhibition at 1.1 µM", "setting": "[1]; 1.1 μM test compound (no mark)", "result": 30, "unit": "%"}]}, {"smiles": "CC(C)C[C@H](NC(=O)OC(C)(C)C)C(=O)N[C@H](Cc1c[nH]c2ccccc12)C(=O)NCCCCCC(=O)O", "note": "[Compound 6] (Boc-Leu-[dW]-[Ahx]-OH)", "values": [{"measurement": "inhibition at 10 µM", "setting": "[1]", "result": 37, "unit": "%"}]}, {"smiles": "CC(C)C[C@H](NC(=O)N1CCCCCC1)C(=O)N[C@H](Cc1c[nH]c2ccccc12)C(=O)NN1CCC[C@@H]1C(=O)O", "note": "[Compound 163]", "values": [{"measurement": "inhibition at 1.1 µM", "setting": "[1]; 1.1 μM test compound (no mark)", "result": 76, "unit": "%"}]}, {"smiles": "CC(C)C[C@H](NC(=O)OC(C)(C)C)C(=O)N[C@H](Cc1c[nH]c2ccccc12)C(=O)N[C@H](CC(=O)OCc1ccccc1)C(N)=O", "note": "[Compound 35] (Boc-Leu-[dW]-[dD](OBn)-NH2)", "values": [{"measurement": "inhibition at 1.1 µM", "setting": "[1]; 1.1 μM test compound (no mark)", "result": 35, "unit": "%"}]}, {"smiles": "CC(C)C[C@H](NC(=O)OC(C)(C)C)C(=O)N[C@H](Cc1c[nH]c2ccccc12)C(=O)N[C@H](Cc1ccc(O)cc1)C(=O)O", "note": "[Compound 138] (Boc-Leu-[dW]-[dY]-OH)", "values": [{"measurement": "inhibition at 1.1 µM", "setting": "[1]; 1.1 μM test compound (no mark)", "result": 72, "unit": "%"}]}, {"smiles": "CC(C)C[C@H](NC(=O)C1CCCCCC1)C(=O)N[C@H](Cc1c[nH]c2ccccc12)C(=O)N[C@H](Cc1c[nH]c2ccccc12)C(=O)O", "note": "[Compound 200]", "values": [{"measurement": "inhibition at 1.1 µM", "setting": "[1]; 1.1 μM test compound (no mark)", "result": 87, "unit": "%"}]}, {"smiles": "CC(C)C[C@H](NC(=O)N1CCCCCC1)C(=O)N[C@H](Cc1c[nH]c2ccccc12)C(=O)NCCC(=O)O", "note": "[Compound 93]", "values": [{"measurement": "inhibition at 1.1 µM", "setting": "[1]; 1.1 μM test compound (no mark)", "result": 78, "unit": "%"}, {"measurement": "maximum response to endothelin-1", "setting": "[2]; 6 μM compound", "result": "did not affect the maximum response"}, {"measurement": "shift of the concentration-response curve of endothelin-1", "setting": "[2]; 6 μM compound", "result": "remarkably shifted the concentration-response curves of endothelin-1 to the right"}, {"measurement": "maximum response to endothelin-1", "setting": "[3]", "result": "did not affect the maximum response"}, {"measurement": "shift of the concentration-response curve for endothelin-1", "setting": "[3]", "result": "remarkably shifted the concentration-response curves for endothelin-1 to the right"}]}]}
